Here are results for one compound from ChEMBL document CHEMBL4414609, “High-Affinity Alkynyl Bisubstrate Inhibitors of Nicotinamide N-Methyltransferase (NNMT)” (J Med Chem, 2019).

The term inhibition denotes the relative decrease from the control value, in per cent. What is called IC50 is the concentration that gives 50% inhibition.

Series [1] has as its target T1, COMT (catechol O-methyltransferase) (Homo sapiens, UniProt P21964).
T1 sequence (P21964 whole entry): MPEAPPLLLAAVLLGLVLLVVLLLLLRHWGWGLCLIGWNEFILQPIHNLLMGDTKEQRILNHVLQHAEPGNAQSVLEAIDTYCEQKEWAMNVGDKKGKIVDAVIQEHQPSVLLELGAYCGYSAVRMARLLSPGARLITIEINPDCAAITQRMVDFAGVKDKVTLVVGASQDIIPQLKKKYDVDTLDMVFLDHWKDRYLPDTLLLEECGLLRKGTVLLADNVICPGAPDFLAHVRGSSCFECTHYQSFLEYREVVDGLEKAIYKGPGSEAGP
The series is described as follows: Inhibition of human COMT expressed in Escherichia coli at 1 uM assessed as reduction in SAH level using pyrocatechol as substrate in presence of SAM incubated for 15 mins by LC-MS/MS analysis relative to control. The note with it: recombinant human COMT expressed in Escherichia coli, probe pyrocatechol.

In series [2] the target is T2, HNMT (histamine N-methyltransferase) (Homo sapiens, UniProt P50135). In words: Inhibition of human HNMT expressed in Escherichia coli at 1 uM assessed as reduction in SAH level using histamine as substrate in presence of SAM incubated for 15 mins by LC-MS/MS analysis relative to control. The note with it: recombinant human HNMT expressed in Escherichia coli, probe histamine.

Series [3] concerns the target Protein arginine N-methyltransferase 1 (Homo sapiens, UniProt Q99873). In words: Inhibition of human PRMT1 expressed in Escherichia coli assessed as reduction in methylated histone H4 full length level using histone H4 full length as substrate in presence of [3H] SAM incubated for 20 mins by scintillation counting.
The target of series [4] is Histone-lysine N-methyltransferase ASH1L (Homo sapiens, UniProt Q9NR48). The series is described as follows: Inhibition of human ASH1L expressed in Escherichia coli assessed as reduction in methylated polynucleosome level using polynucleosome as substrate in presence of [3H] SAM incubated for 15 mins by scintillation counting.
For series [5], the target named is GAMT (guanidinoacetate N-methyltransferase) (Homo sapiens, UniProt Q14353). The series is described as follows: Inhibition of human GAMT expressed in Escherichia coli at 10 uM assessed as reduction in SAH level using guanidineacetic acid as substrate in presence of SAM incubated for 30 mins by LC-MS/MS analysis relative to control. The note with it: recombinant human GAMT expressed in Escherichia coli, probe guanidineacetic acid.

Series [6] concerns the target T3, Histone-lysine N-methyltransferase EHMT2 (Homo sapiens, UniProt Q96KQ7).
T3 sequence (Q96KQ7 whole entry): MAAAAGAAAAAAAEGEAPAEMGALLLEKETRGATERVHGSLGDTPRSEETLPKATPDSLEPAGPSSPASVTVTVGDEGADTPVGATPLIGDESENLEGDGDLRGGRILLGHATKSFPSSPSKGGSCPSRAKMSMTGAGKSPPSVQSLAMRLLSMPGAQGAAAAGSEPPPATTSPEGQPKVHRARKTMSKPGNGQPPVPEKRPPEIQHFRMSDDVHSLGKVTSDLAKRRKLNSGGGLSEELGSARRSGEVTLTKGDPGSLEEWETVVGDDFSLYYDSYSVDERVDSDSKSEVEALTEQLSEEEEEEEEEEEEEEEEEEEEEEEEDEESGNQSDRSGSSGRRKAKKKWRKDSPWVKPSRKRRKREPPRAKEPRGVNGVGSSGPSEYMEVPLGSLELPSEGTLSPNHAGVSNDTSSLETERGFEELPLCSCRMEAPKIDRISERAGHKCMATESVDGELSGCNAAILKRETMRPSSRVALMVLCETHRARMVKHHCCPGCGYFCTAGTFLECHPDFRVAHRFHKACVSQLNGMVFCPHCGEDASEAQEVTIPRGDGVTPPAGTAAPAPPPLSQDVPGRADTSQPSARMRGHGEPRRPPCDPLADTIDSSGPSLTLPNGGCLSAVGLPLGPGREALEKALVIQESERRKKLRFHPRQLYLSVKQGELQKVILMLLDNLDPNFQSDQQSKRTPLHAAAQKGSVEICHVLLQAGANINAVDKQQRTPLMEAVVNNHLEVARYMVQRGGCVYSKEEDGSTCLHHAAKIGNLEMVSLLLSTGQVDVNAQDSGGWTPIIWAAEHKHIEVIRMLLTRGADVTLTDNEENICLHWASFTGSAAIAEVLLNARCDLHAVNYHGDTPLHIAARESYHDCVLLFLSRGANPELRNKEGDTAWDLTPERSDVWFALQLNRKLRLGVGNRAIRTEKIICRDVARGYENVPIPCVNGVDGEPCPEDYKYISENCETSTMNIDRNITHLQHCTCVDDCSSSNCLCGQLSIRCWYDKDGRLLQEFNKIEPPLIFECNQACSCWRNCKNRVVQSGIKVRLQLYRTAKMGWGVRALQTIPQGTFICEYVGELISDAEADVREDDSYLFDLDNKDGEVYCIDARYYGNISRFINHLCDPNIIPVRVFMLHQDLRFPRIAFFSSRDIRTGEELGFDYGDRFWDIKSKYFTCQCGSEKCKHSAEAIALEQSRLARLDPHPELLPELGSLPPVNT
In words: Inhibition of human G9a expressed in Escherichia coli assessed as reduction in methylated histone H3 full length using histone H3 full length level as substrate in presence of [3H] SAM incubated for 120 mins by scintillation counting.

Series [7] concerns the target T2, HNMT (histamine N-methyltransferase). In words: Inhibition of human HNMT expressed in Escherichia coli at 10 uM assessed as reduction in SAH level using histamine as substrate in presence of SAM incubated for 15 mins by LC-MS/MS analysis relative to control. To be noted: recombinant human HNMT expressed in Escherichia coli, probe histamine.
For series [8], the target named is T4, TPMT (thiopurine S-methyltransferase) (Homo sapiens, UniProt P51580).
T4 sequence (P51580 whole entry): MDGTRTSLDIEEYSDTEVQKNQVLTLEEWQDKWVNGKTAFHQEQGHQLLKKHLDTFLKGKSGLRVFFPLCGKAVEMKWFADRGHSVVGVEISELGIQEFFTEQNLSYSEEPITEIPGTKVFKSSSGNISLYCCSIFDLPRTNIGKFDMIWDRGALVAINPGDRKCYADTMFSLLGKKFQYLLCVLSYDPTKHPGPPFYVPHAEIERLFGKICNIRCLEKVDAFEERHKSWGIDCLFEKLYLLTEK
The series is described as follows: Inhibition of human TPMT expressed in Escherichia coli assessed as reduction in SAH level at 10 uM using 6-mercaptopurine as substrate in presence of SAM incubated for 30 mins by LC-MS/MS analysis relative to control. The note with it: recombinant human TPMT expressed in Escherichia coli, probe 6-mercaptopurine.

T2 sequence (P50135 whole entry): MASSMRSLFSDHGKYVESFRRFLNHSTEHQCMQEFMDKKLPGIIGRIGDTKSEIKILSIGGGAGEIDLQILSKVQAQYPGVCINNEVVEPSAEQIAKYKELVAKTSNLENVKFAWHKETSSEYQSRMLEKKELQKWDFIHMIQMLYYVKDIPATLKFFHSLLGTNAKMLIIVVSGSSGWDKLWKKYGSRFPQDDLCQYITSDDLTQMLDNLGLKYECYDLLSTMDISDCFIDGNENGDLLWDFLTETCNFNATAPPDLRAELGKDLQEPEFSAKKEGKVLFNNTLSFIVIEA
Chain of Protein arginine N-methyltransferase 1 (Q99873 whole entry): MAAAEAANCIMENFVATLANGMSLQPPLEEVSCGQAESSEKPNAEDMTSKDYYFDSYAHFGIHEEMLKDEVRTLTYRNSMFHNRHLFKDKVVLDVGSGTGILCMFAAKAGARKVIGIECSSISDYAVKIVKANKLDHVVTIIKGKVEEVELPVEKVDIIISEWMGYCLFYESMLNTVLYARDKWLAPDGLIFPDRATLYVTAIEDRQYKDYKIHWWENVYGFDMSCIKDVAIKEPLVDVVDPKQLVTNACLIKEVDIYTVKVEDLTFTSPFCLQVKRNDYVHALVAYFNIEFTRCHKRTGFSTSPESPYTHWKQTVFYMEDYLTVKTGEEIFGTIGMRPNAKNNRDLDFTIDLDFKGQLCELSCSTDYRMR

`NC(=O)c1cccc(C#C[C@@H](CC[C@H](N)C(=O)O)C[C@H]2O[C@@H](n3cnc4c(N)ncnc43)[C@H](O)[C@@H]2O)c1`: the inhibition at 0.25 h, 1 µM in series [1] amounted to 0%; in series [2] it was 6%. For the same compound, the IC50 in series [3], in series [4] and in series [6] was more than 10 µM each time. Also, the inhibition at 0.5 h, 10 µM amounted to 26% in series [5] and 76% in series [8]. Besides, in series [7], the inhibition at 0.25 h, 10 µM worked out at 2%.
